According to ChEMBL document CHEMBL1201862, “PubChem BioAssay data set” (2004):
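Exposure lasted 48 hours, with cells grown in 96-well plates and compounds tested at five concentrations. GI50 = concentration required for 50% inhibition of growth.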 The source made the active and inactive calls. No stated cut-off is given here; in the data, active = GI50 up to about 1.1 µM and inactive = higher.

Experiments:
Test in all cases: growth of human tumour cells (NCI), 48 h
[1] = system: SNB-19
[2] = system: NCI-H522
[3] = system: LOX IMVI
[4] = system: NCI/ADR-RES
[5] = system: KM12
[6] = system: OVCAR-3
[7] = system: SNB-75
[8] = system: OVCAR-4
[9] = system: Malme-3M
[10] = system: SF-539
[11] = system: K562
[12] = system: A498
[13] = system: SF-295
[14] = system: HCT-15
[15] = system: HOP-62
[16] = system: U-251
[17] = system: UO-31
[18] = system: MDA-N

Structure (SMILES)	GI50 [1]	GI50 [2]	GI50 [3]	GI50 [4]	GI50 [5]	GI50 [6]	GI50 [7]	GI50 [8]	GI50 [9]	GI50 [10]	GI50 [11]	GI50 [12]	GI50 [13]	GI50 [14] [µM]	GI50 [15]	GI50 [16]	GI50 [17]	GI50 [18]
CC(=O)C1=C(O)/C(=C\c2ccco2)OC1=O	> 10 µM (inactive)	> 10 µM (inactive)	> 10 µM (inactive)	> 10 µM (inactive)	> 10 µM (inactive)	> 10 µM (inactive)	> 10 µM (inactive)	> 10 µM (inactive)	> 10 µM (inactive)	> 10 µM (inactive)	> 10 µM (inactive)	> 10 µM (inactive)	> 10 µM (inactive)	> 10	> 10 µM (inactive)	> 10 µM (inactive)	> 10 µM (inactive)	–
COC(=O)C1=NN2c3ccccc3CN([C@@H](C)c3ccccc3)C(=O)[C@@H]2C1	39.6 µM (inactive)	21.7 µM (inactive)	25.5 µM (inactive)	21 µM (inactive)	21.2 µM (inactive)	30.8 µM (inactive)	–	13.3 µM (inactive)	23.1 µM (inactive)	50.7 µM (inactive)	21.8 µM (inactive)	91.8 µM (inactive)	40.2 µM (inactive)	31.7	57.7 µM (inactive)	40.7 µM (inactive)	17.5 µM (inactive)	28.3 µM (inactive)
O=C1CCCSCCCC(=O)CCCSCCC1	> 100 µM (inactive)	> 100 µM (inactive)	> 100 µM (inactive)	> 100 µM (inactive)	> 100 µM (inactive)	> 100 µM (inactive)	93.3 µM (inactive)	> 100 µM (inactive)	–	> 100 µM (inactive)	> 100 µM (inactive)	–	> 100 µM (inactive)	> 100	> 100 µM (inactive)	> 100 µM (inactive)	> 100 µM (inactive)	> 100 µM (inactive)
COc1cc(C2c3cc4c(cc3OC(NN=C(C)C)C2C)OCO4)cc(OC)c1O (centres undefined)	85.5 µM (inactive)	3.94 µM (inactive)	–	18 µM (inactive)	21.2 µM (inactive)	19.5 µM (inactive)	3.66 µM (inactive)	48.3 µM (inactive)	8.75 µM (inactive)	21.2 µM (inactive)	–	–	18.9 µM (inactive)	7.43	–	29.2 µM (inactive)	46.9 µM (inactive)	3 µM (inactive)
C=C1C(=O)O[C@@H]2C=C(C)C3=CC(=O)[C@](C)(C[C@H](OC(=O)/C(C)=C\C)[C@@H]12)O3	–	0.144 µM (active)	0.299 µM (active)	0.67 µM (active)	1.3 µM (inactive)	–	13.5 µM (inactive)	4.88 µM (inactive)	–	2.43 µM (inactive)	0.282 µM (active)	–	2.42 µM (inactive)	0.328	3.14 µM (inactive)	1.85 µM (inactive)	1.09 µM (active)	0.311 µM (active)
Cc1cc(=O)oc2cc(OCc3c(F)cccc3Cl)ccc12	20.9 µM (inactive)	11.1 µM (inactive)	11.5 µM (inactive)	–	1.99 µM (inactive)	> 100 µM (inactive)	9.02 µM (inactive)	48.4 µM (inactive)	0.728 µM (active)	11.9 µM (inactive)	–	> 100 µM (inactive)	17.5 µM (inactive)	–	13 µM (inactive)	8.85 µM (inactive)	> 100 µM (inactive)	2.3 µM (inactive)
NC(C(F)(F)F)(C(F)(F)F)P(=O)(Cc1ccccc1)Cc1ccccc1	> 100 µM (inactive)	–	> 100 µM (inactive)	> 100 µM (inactive)	> 100 µM (inactive)	> 100 µM (inactive)	55.6 µM (inactive)	> 100 µM (inactive)	> 100 µM (inactive)	42.8 µM (inactive)	> 100 µM (inactive)	–	> 100 µM (inactive)	> 100	83.2 µM (inactive)	> 100 µM (inactive)	> 100 µM (inactive)	> 100 µM (inactive)
COc1ccc2c(c1)CCC1=CC3(CCC12C)SCCS3 (centres undefined)	> 10 µM (inactive)	2.99 µM (inactive)	7.06 µM (inactive)	3.56 µM (inactive)	4.27 µM (inactive)	3.3 µM (inactive)	0.649 µM (active)	> 10 µM (inactive)	5.35 µM (inactive)	–	3.72 µM (inactive)	–	3.87 µM (inactive)	6.38	> 10 µM (inactive)	9.73 µM (inactive)	–	2.59 µM (inactive)
O=C1C=C2CCC[C@H]3OC(=O)C[C@@]23CC1	> 100 µM (inactive)	> 100 µM (inactive)	> 100 µM (inactive)	> 100 µM (inactive)	> 100 µM (inactive)	> 100 µM (inactive)	–	> 100 µM (inactive)	> 100 µM (inactive)	> 100 µM (inactive)	> 100 µM (inactive)	> 100 µM (inactive)	> 100 µM (inactive)	> 100	> 100 µM (inactive)	> 100 µM (inactive)	–	> 100 µM (inactive)
OC(c1ccco1)C(F)(F)c1nc2ccccc2o1 (centres undefined)	> 100 µM (inactive)	–	> 100 µM (inactive)	> 100 µM (inactive)	> 100 µM (inactive)	–	> 100 µM (inactive)	> 100 µM (inactive)	–	> 100 µM (inactive)	69.8 µM (inactive)	62.1 µM (inactive)	56.8 µM (inactive)	> 100	> 100 µM (inactive)	> 100 µM (inactive)	69.2 µM (inactive)	–
COc1ccc(C2SCC(=O)N2NC(=O)C(C)Oc2ccccc2Cl)cc1 (centres undefined)	69.2 µM (inactive)	51.9 µM (inactive)	24.5 µM (inactive)	63.2 µM (inactive)	35.9 µM (inactive)	–	56.6 µM (inactive)	60.7 µM (inactive)	–	> 100 µM (inactive)	47.4 µM (inactive)	28.1 µM (inactive)	45 µM (inactive)	49.8	–	38 µM (inactive)	70.5 µM (inactive)	–
O=C1c2ccccc2C(=O)c2c(NCCNC(=O)C3CCCN3)ccc(NCCNC(=O)C3CCCN3)c21 (centres undefined)	44.1 µM (inactive)	19.9 µM (inactive)	0.0415 µM (active)	> 100 µM (inactive)	23.2 µM (inactive)	69.8 µM (inactive)	53.3 µM (inactive)	> 100 µM (inactive)	95.9 µM (inactive)	44.6 µM (inactive)	19.2 µM (inactive)	–	> 100 µM (inactive)	> 100	45 µM (inactive)	37.2 µM (inactive)	31.5 µM (inactive)	46.5 µM (inactive)
O=C1c2ccccc2NC2C(O)c3ccccc3N12 (centres undefined)	> 100 µM (inactive)	4.09 µM (inactive)	36.6 µM (inactive)	40.4 µM (inactive)	35.2 µM (inactive)	37 µM (inactive)	> 100 µM (inactive)	25.5 µM (inactive)	3.98 µM (inactive)	> 100 µM (inactive)	13.9 µM (inactive)	20.6 µM (inactive)	28.8 µM (inactive)	34.6	65 µM (inactive)	30 µM (inactive)	40.8 µM (inactive)	–
Nc1ccn(C2OC(C(OC3OC(CO)C(O)C(N)C3O)C(O)C(O)C(O)C(O)CO)C(N)C(O)C2O)c(=O)n1 (centres undefined)	47.3 µM (inactive)	22.5 µM (inactive)	21.7 µM (inactive)	49.1 µM (inactive)	70 µM (inactive)	22.4 µM (inactive)	–	3.54 µM (inactive)	–	11.3 µM (inactive)	–	> 100 µM (inactive)	13.1 µM (inactive)	36.3	20.7 µM (inactive)	> 100 µM (inactive)	52 µM (inactive)	> 100 µM (inactive)
COc1cccc(/N=N/C(=N/NC(=O)c2ccc(C)cc2)c2ccc(N(CCC#N)CCC#N)cc2OC)c1	> 100 µM (inactive)	> 100 µM (inactive)	> 100 µM (inactive)	> 100 µM (inactive)	> 100 µM (inactive)	> 100 µM (inactive)	–	> 100 µM (inactive)	> 100 µM (inactive)	–	> 100 µM (inactive)	> 100 µM (inactive)	59 µM (inactive)	> 100	> 100 µM (inactive)	> 100 µM (inactive)	> 100 µM (inactive)	> 100 µM (inactive)
COP(=O)(OC)C(O)/C=C/c1ccco1 (centres undefined)	> 100 µM (inactive)	> 100 µM (inactive)	> 100 µM (inactive)	> 100 µM (inactive)	> 100 µM (inactive)	> 100 µM (inactive)	–	> 100 µM (inactive)	> 100 µM (inactive)	–	> 100 µM (inactive)	> 100 µM (inactive)	> 100 µM (inactive)	> 100	> 100 µM (inactive)	> 100 µM (inactive)	> 100 µM (inactive)	> 100 µM (inactive)
O=C(/N=N/c1ccc(Cl)cc1Cl)NNc1ccc(Cl)cc1Cl	28.6 µM (inactive)	19.1 µM (inactive)	16.5 µM (inactive)	–	–	15.9 µM (inactive)	31.6 µM (inactive)	13.3 µM (inactive)	18.6 µM (inactive)	–	20.8 µM (inactive)	15.7 µM (inactive)	–	19.6	1.75 µM (inactive)	18.5 µM (inactive)	12 µM (inactive)	16.2 µM (inactive)
Cc1ccsc1/C(S)=N\c1ccc(Cl)c(/C=N/OC(C)(C)C)c1	> 100 µM (inactive)	24 µM (inactive)	18.6 µM (inactive)	23.6 µM (inactive)	25.1 µM (inactive)	83.2 µM (inactive)	–	> 100 µM (inactive)	40.2 µM (inactive)	50.5 µM (inactive)	–	20.2 µM (inactive)	28.1 µM (inactive)	31.2	51.5 µM (inactive)	24.3 µM (inactive)	20.6 µM (inactive)	43.1 µM (inactive)
